Experiment: xn = mol fraction of the nth substance listed
Settings: 100 kPa

O + CC[n+]1ccn(C)c1.N#C[S-]
x1 = 1
Settings | viscosity [mPa·s]
288.15 K | 1.13
298.15 K | 0.89
308.15 K | 0.72
313.15 K | 0.65
318.15 K | 0.6

CC[n+]1ccn(C)c1.N#C[S-] + O
viscosity [mPa·s]
Settings | 288.15 K | 293.15 K | 298.15 K | 303.15 K | 308.15 K | 313.15 K | 318.15 K
x2 = 0 | 34.24 | 27.9 | 22.68 | 19.09 | – | 14.18 | –
x2 = 0.1006 | 27.45 | – | 18.74 | 16.03 | 13.87 | – | 10.71
x2 = 0.1948 | 21.99 | 18.63 | 15.93 | – | – | 10.58 | –
x2 = 0.3026 | 18.6 | 15.74 | 13.44 | 11.61 | 10.14 | 8.93 | 7.94
x2 = 0.4011 | 15.07 | 12.81 | 10.99 | – | 8.39 | 7.43 | 6.62
x2 = 0.4979 | 12.4 | 10.43 | 8.94 | 7.77 | 6.83 | 6.07 | 5.43
x2 = 0.6043 | 9.2 | 7.9 | 6.85 | 6.01 | – | 4.74 | 4.26
x2 = 0.6887 | 7.15 | 6.17 | 5.38 | – | – | 3.74 | 3.35
x2 = 0.7981 | 4.7 | – | – | – | – | – | –
x2 = 0.9105 | 2.53 | – | 2.02 | 1.79 | 1.6 | – | 1.31
x2 = 0.9443 | – | 1.76 | 1.57 | 1.39 | 1.25 | 1.13 | 1.03
x2 = 0.9506 | 1.86 | 1.67 | 1.49 | 1.32 | 1.19 | – | 0.98

— a compilation of properties of binary mixtures (doi:10.1016/j.jct.2016.12.008)
